Measurements published in patent US20260008746A1, “CATIONIC LIPID COMPOUND WITH HIGH EFFICIENCY, LOW TOXICITY AND STABLE EXPRESSION, AND COMPOSITION COMPRISNG SAME” (HANGZHOU TIANLONG PHARMACEUTICAL CO., LTD, priority 2023, published 2026).
Several values for one entry are separate records, joined by “and”; a condition that tells them apart may be missing. Identical values can stand only once.

What was measured:
[1] = system: BALB/C mice; experiment: In vivo imaging of Fluc-mRNA expression in mice delivered by LNP formulations; details: for average radiation intensity, 6 h / average radiation intensity, 24 h / average radiation intensity, 48 h / average radiation intensity, 7 d: LNP containing 10 pg Fluc-mRNA, intramuscular, female BALB/C mice
Protocol: The LNP formulation containing […] Fluc-mRNA was injected intramuscularly into female BALB/C mice aged 4-6 weeks old and weighed 17-19 g, and the mice were intraperitoneally injected with fluorescent imaging substrate at specific time points after administration (6h, 24 h, 48h and 7d), where the mice were allowed to move freely for 5 minutes, and then the average radiation intensity (corresponding to fluorescence expression intensity) of the protein expression of the mRNA carried by the LNP in the mice was detected by the IVIS Spectrum small animal in vivo imaging device. The test results are shown in Tables 11 to 14 and FIGS. 12 to 14.

[2] = system: 293T cells; experiment: Cell survival rate determination (CCK-8); assay type: cell-based; details: for Cell survival rate (%): LNP formulation containing 1.5 μg Fluc-mRNA, 24 hours, CCK-8, absorbance at 450 nm; for cell survival rate lower than that of YK-101: cell survival rate of YK-101 minus that of named substance; for cell survival rate lower than that of YK-107: cell survival rate of YK-107 minus that of named substance; for cell survival rate lower than that of YK-108: cell survival rate of YK-108 minus that of named substance
Protocol: (§1) Cell recovery and passage: 293T cells were recovered, cultured in a culture dish, and passaged to the required number of cells.
(§2) Seeding plate: The cells in the culture dish were digested and counted. Cells were spread in a 96-well plate at 10,000 cells per well and in a 12-well plate at 150,000 cells per well. Cells were cultured overnight until the cells adhered to the wall.
An LNP formulation containing 1.5 μg of Fluc-mRNA (the cater component of the LNP formulation were cationic lipid, neutral lipid, structured lipid and polymer-conjugated lipid with a molar ratio of 49: 10: 39.5: 1.5, wherein the cationic lipid was listed in Table 1) and the formulation of Lipofectamine 3000 were added to the cell culture medium of a 96-well plate, and further cultivated for 24 hours. 10 μL of CCK-8 solution was then added to each well, and the culture plate was incubated in an incubator for 1 hour. The absorbance at 450 nm was measured by a microplate reader.

[3] = system: 293T cells; experiment: Fluorescent detection of Fluc-mRNA (cell transfection efficiency of LNP formulations); assay type: cell-based; details: for Relative light unit (RLU): LNP formulation containing 0.3 μg Fluc-mRNA, 96-well plate, 24 hours; for Multiples (YK-101): RLU of YK-101 / RLU of named substance; for Multiples (YK-107): RLU of YK-107 / RLU of named substance; for Multiples (YK-108): RLU of YK-108 / RLU of named substance; for Ratio relative to SM-102: RLU of named substance / RLU of SM-102; for fluorescence absorption value, times that of HHMA: RLU of named substance / RLU of HHMA; for fluorescence absorption value, times that of Lipofectamine 3000: RLU of named substance / RLU of Lipofectamine 3000; for Fluc-mRNA expression signal intensity, times that of compound 21: RLU of named substance / RLU of compound 21; for fluorescence absorption value, times that of compound 23: RLU of named substance / RLU of compound 23
Protocol: as §1, §2
Cell recovery and passage: the method was the same as in Example 3.
Seeding plate: the method was the same as in Example 3.
An LNP formulation containing 0.3 μg of Fluc-mRNA (the carrier components of the LNP formulation were cationic lipid, neutral lipid, structured lipid and polymer-conjugated lipid with a molar ratio of 49:10:39.5:1.5, wherein the cationic lipid was listed in Table 1) was added to the cell culture medium of a 96-well plate, and further incubated for 24 hours. The corresponding reagent was added according to the instructions of the Gaussia Luciferase Assay Kit, and the fluorescence expression intensity of each well was detected by an IVIS fluorescence detection system. This test verified the transfection efficiencies of LNP formulations in cells, see Tables 3-6 for specific test results.

SMILES: CCCCCCCCCCOC(=O)CCCN(CCO)CCCCCC(=O)OCCC(CCCCCC)CCCCCC [YK-101, 3-hexylnonyl-6-(4-(decyloxy)-4-oxobutyl)((2-hydroxyethyl)amino)hexanoate]
- average radiation intensity, 6 h ([1]; 6 h): 1496240
- average radiation intensity, 24 h ([1]; 24 h): 1056210
- average radiation intensity, 48 h ([1]; 48 h): 185905
- average radiation intensity, 7 d ([1]; 7 d): 12165
- Cell survival rate (%) [2]: 90.12%
- Relative light unit (RLU) [3]: 20335193 RLU
- Multiples (YK-101) [3]: 1.00
- Multiples (YK-107) [3]: 1.10
- Multiples (YK-108) [3]: 1.21
- Ratio relative to SM-102 [3]: 13.25

SMILES: CCCCCCCCCCOC(=O)CCCN(CCCO)CCCCCC(=O)OCCC(CCCCCC)CCCCCC [YK-102, 3-hexylnonyl-6-(4-(decyloxy)-4-oxobutyl)((3-hydroxypropyl)amino)hexanoate]
- average radiation intensity of YK-101, times that of named substance ([1]; 6 h): 2.3 times
- average radiation intensity of YK-107, times that of named substance ([1]; 6 h): 2.5 times
- average radiation intensity of YK-108, times that of named substance ([1]; 6 h): 3.1 times
- average radiation intensity of YK-101, times that of named substance ([1]; 24 h): 10.5 times
- average radiation intensity of YK-107, times that of named substance ([1]; 24 h): 13.0 times
- average radiation intensity of YK-108, times that of named substance ([1]; 24 h): 14.0 times
- average radiation intensity of YK-101, times that of named substance ([1]; 48 h): 6.1 times
- average radiation intensity of YK-107, times that of named substance ([1]; 48 h): 7.4 times
- average radiation intensity of YK-108, times that of named substance ([1]; 48 h): 7.6 times
- average radiation intensity of YK-101, times that of named substance ([1]; 7 d): 1.9 times
- average radiation intensity of YK-107, times that of named substance ([1]; 7 d): 2.1 times
- average radiation intensity of YK-108, times that of named substance ([1]; 7 d): 2.2 times
- average radiation intensity, 6 h ([1]; 6 h): 652680
- average radiation intensity, 24 h ([1]; 24 h): 100422
- average radiation intensity, 48 h ([1]; 48 h): 30507
- average radiation intensity, 7 d ([1]; 7 d): 6477
- Cell survival rate (%) [2]: 51.82%
- cell survival rate lower than that of YK-101 [2]: 38.30%
- cell survival rate lower than that of YK-107 [2]: 38.63%
- cell survival rate lower than that of YK-108 [2]: 38.04%
- Relative light unit (RLU) [3]: 1464032 RLU
- Multiples (YK-101) [3]: 13.89
- Multiples (YK-108) [3]: 16.84
- Ratio relative to SM-102 [3]: 0.95

SMILES: CCCCCCC(CCCCCC)CCOC(=O)CCCCCN(CCO)CCCCCC(=O)OCCCSSCCCCC [YK-110]
- Cell survival rate (%) [2]: 42.85%
- cell survival rate lower than that of YK-101 [2]: 40%
- cell survival rate lower than that of YK-107 [2]: 40%
- cell survival rate lower than that of YK-108 [2]: 40%
- Relative light unit (RLU) [3]: 271783 RLU
- Multiples (YK-101) [3]: 74.82
- Multiples (YK-107) [3]: 82.28
- Multiples (YK-108) [3]: 90.74
- fluorescence absorption value, times that of HHMA [3]: 0.13 times
- fluorescence absorption value, times that of Lipofectamine 3000 [3]: 0.25 times
- Ratio relative to SM-102 [3]: 0.18
- Fluc-mRNA expression signal intensity, times that of compound 21 [3]: 0.20 times
- fluorescence absorption value, times that of compound 23 [3]: 0.21 times

SMILES: CCCCCCC(CCCCCC)CCOC(=O)CCCCCN(CCO)CCCCCC(=O)OCCSCCCC [YK-112, 3-hexylnonyl-6-(6-(2-(butylthio)ethoxy)-6-oxohexyl)((2-hydroxyethyl)amino)hexanoate]
- Cell survival rate (%) [2]: 9.82%
- cell survival rate lower than that of YK-101 [2]: 80.30% and 80%
- cell survival rate lower than that of YK-107 [2]: 80.63% and 80%
- cell survival rate lower than that of YK-108 [2]: 80.04% and 80%
- Relative light unit (RLU) [3]: 2012 RLU
- fluorescence absorption value, times that of HHMA [3]: 0.0010 times
- fluorescence absorption value, times that of Lipofectamine 3000 [3]: 0.0019 times
- Ratio relative to SM-102 [3]: 0.0013
- Fluc-mRNA expression signal intensity, times that of compound 21 [3]: 0.0014 times
- fluorescence absorption value, times that of compound 23 [3]: 0.0016 times

SMILES: CCCCCCCCC(CCCCCCCC)COC(=O)CCCCCN(CCO)CCCCCC(=O)OCCSCCCC [YK-113, 2-octyldecyl 6-(6-(2-(butylthio)ethoxy)-6-oxohexyl)((2-hydroxyethyl)amino)hexanoate]
- Cell survival rate (%) [2]: 43.05%
- cell survival rate lower than that of YK-101 [2]: 47.07% and 40%
- cell survival rate lower than that of YK-107 [2]: 47.40% and 40%
- cell survival rate lower than that of YK-108 [2]: 46.81% and 40%
- cell transfection activity, times that of YK-112 [3]: up to 75 times
- Relative light unit (RLU) [3]: 151694 RLU
- Multiples (YK-101) [3]: 134.05
- Multiples (YK-108) [3]: 162.57
- fluorescence absorption value, times that of HHMA [3]: 0.07 times
- fluorescence absorption value, times that of Lipofectamine 3000 [3]: 0.14 times
- Ratio relative to SM-102 [3]: 0.10
- Fluc-mRNA expression signal intensity, times that of compound 21 [3]: 0.11 times
- fluorescence absorption value, times that of compound 23 [3]: 0.12 times

SMILES: CCCCCCCCCCOC(=O)CCCN(CCCCCC(=O)OCCC(CCCCCC)CCCCCC)C[C@H](O)CO [YK-116, 3-hexylnonyl 6-(4-(decyloxy)-4-oxobutyl)(((S)-2,3-dihydroxypropyl)amino)hexanoate]
- Cell survival rate (%) [2]: 67.96%
- cell survival rate lower than that of YK-101 [2]: 22.16%
- cell survival rate lower than that of YK-107 [2]: 22.49%
- cell survival rate lower than that of YK-108 [2]: 21.90%
- Relative light unit (RLU) [3]: 1321284 RLU
- Multiples (YK-101) [3]: 15.39
- Multiples (YK-107) [3]: 16.92
- Multiples (YK-108) [3]: 18.66
- fluorescence absorption value, times that of HHMA [3]: 0.65 times
- fluorescence absorption value, times that of Lipofectamine 3000 [3]: 1.23 times
- Ratio relative to SM-102 [3]: 0.86
- Fluc-mRNA expression signal intensity, times that of compound 21 [3]: 0.95 times
- fluorescence absorption value, times that of compound 23 [3]: 1.02 times

SMILES: CCCCCCCCCCOC(=O)CCCN(CCCCCC(=O)OCCC(CCCCCC)CCCCCC)C[C@H](C)O [YK-117, 3-hexylnonyl 6-(4-(decyloxy)-4-oxobutyl)(((S)2-hydroxypropyl)amino)hexanoate]
- Cell survival rate (%) [2]: 57.93%
- cell survival rate lower than that of YK-101 [2]: 32.19%
- cell survival rate lower than that of YK-107 [2]: 32.52%
- cell survival rate lower than that of YK-108 [2]: 31.93%
- cell transfection efficiency, times that of YK-118 [3]: 33 times
- cell transfection efficiency, times that of YK-119 [3]: 80 times
- Relative light unit (RLU) [3]: 695716 RLU
- Multiples (YK-101) [3]: 29.23
- Multiples (YK-107) [3]: 32.14
- Multiples (YK-108) [3]: 35.45
- fluorescence absorption value, times that of HHMA [3]: 0.34 times
- fluorescence absorption value, times that of Lipofectamine 3000 [3]: 0.65 times
- Ratio relative to SM-102 [3]: 0.45
- Fluc-mRNA expression signal intensity, times that of compound 21 [3]: 0.50 times
- fluorescence absorption value, times that of compound 23 [3]: 0.54 times

SMILES: CCCCCCCCCCOC(=O)CCCN(CCCCCC(=O)OCCC(CCCCCC)CCCCCC)CCC(C)O (stereo not drawn) [YK-118, 3-hexylnonyl 6-(4-(decyloxy)-4-oxobutyl)((3-hydroxybutyl)amino)hexanoate]
- Cell survival rate (%) [2]: 63.33%
- cell survival rate lower than that of YK-101 [2]: 26.79%
- cell survival rate lower than that of YK-107 [2]: 27.12%
- cell survival rate lower than that of YK-108 [2]: 26.53%
- Relative light unit (RLU) [3]: 21310 RLU
- Multiples (YK-107) [3]: 1049.33
- Multiples (YK-108) [3]: 1157.23
- fluorescence absorption value, times that of HHMA [3]: 0.0104 times
- fluorescence absorption value, times that of Lipofectamine 3000 [3]: 0.0199 times
- Ratio relative to SM-102 [3]: 0.0139
- Fluc-mRNA expression signal intensity, times that of compound 21 [3]: 0.0153 times
- fluorescence absorption value, times that of compound 23 [3]: 0.0165 times

SMILES: CCCCCCCCCCOC(=O)CCCN(CCCCCC(=O)OCCC(CCCCCC)CCCCCC)CCC(C)(C)O [YK-119, 3-hexylnonyl 6-(4-(decyloxy)-4-oxobutyl)((3-hydroxy-3-methylbutyl)amino)hexanoate]
- Cell survival rate (%) [2]: 80.27%
- cell survival rate lower than that of YK-101 [2]: 9.85%
- cell survival rate lower than that of YK-107 [2]: 10.18%
- cell survival rate lower than that of YK-108 [2]: 9.59%
- Relative light unit (RLU) [3]: 8557 RLU
- fluorescence absorption value, times that of HHMA [3]: 0.0042 times
- fluorescence absorption value, times that of Lipofectamine 3000 [3]: 0.0080 times
- Ratio relative to SM-102 [3]: 0.0056
- Fluc-mRNA expression signal intensity, times that of compound 21 [3]: 0.0062 times
- fluorescence absorption value, times that of compound 23 [3]: 0.0066 times
